Measurements reported in publication PMC12040169 (PLOS Biology, 2025).

Experiment: in vitro
Conditions: human, hela cells, % viability

SMILES	viability at 28.5 h, 10 µM
O=C(O)COc1ccc(Br)cn1 [CBK026021]	104%
COc1ccc(CCNc2ccc(C(F)(F)F)cc2[N+](=O)[O-])cc1OC [CBK074656]	87.4%
O=C(O)c1cccc2c3c([nH]c12)CCCCC3 [CBK003451]	85%
CS(=O)(=O)Nc1ccc2cc(-c3cccc(C(F)(F)F)c3)cnc2n1 [CBK085671]	94.1%
Cc1ccc(C(=O)N2CCC(c3n[nH]c4ncccc34)CC2)s1 [CBK284911]	90.8%
Cc1cc2occ(CC(=O)NCc3ccccn3)c2c(C)c1Cl [CBK269175]	97.5%
O=C(c1cc(-c2ccncc2)nc2ccc(Cl)cc12)N1CCN(c2ccc([N+](=O)[O-])cc2)CC1 [CBK267748]	83.8%
O=C(CN1CCC(O)(Cn2cnc3ccccc32)CC1)c1ccc(-c2ccccc2)cc1 [CBK286306]	86.8%
O=C(C1CC1)N1CC(n2nc(-c3cccs3)ccc2=O)C1 [CBK284650]	85.1%
COc1ccccc1OCCOc1ccc(/C=N/n2cnnc2)cc1 [CBK263295]	106%
Nc1cc2cccnc2nc1-c1cc(F)cc(F)c1 [CBK067604]	88.3%
C#C[C@H]1C[N@@]2CC[C@H]1C[C@@H]2CNS(=O)(=O)c1cccc(C#N)c1 [CBK288753]	106%
CCOC(=O)C1CSCN1C(=O)c1cnn(C(CC)CC)c1C (centres unmarked) [CBK304759]	106%
Cc1nc(N)sc1-c1csc(Nc2cccc(C(F)(F)F)c2)n1 [CBK267357]	95.2%
COc1ccc(CNC(=O)c2sccc2S(=O)(=O)N2CCCCC2)cc1 [CBK305904]	101%
CC(C)Cc1csc(C2CN3CCCC3CO2)n1 (centres unmarked) [CBK304807]	83.9%
FC(F)(F)Oc1ccc(-n2cc(-c3ccsc3)nn2)cc1 [CBK113096]	92.7%
CC(C)(CN)CN(Cc1ccncc1)C(=O)Nc1ccc(C(C)(C)C)cc1 [CBK002459C]	82%
Brc1ccc(-c2nc(NCCCN3CCOCC3)cc(-c3ccccc3)n2)cc1 [CBK261712]	90.1%
COCCn1c(SCc2nc3ccccc3nc2C)nc(C)c1C [CBK305651]	106%
O=C(CCc1nc2sc3c(c2c(=O)[nH]1)CCCC3)N1CCCC1 [CBK306069]	90.8%
CN(C(=O)C1CCCO1)c1nc2c(s1)CCc1occc1-2 (centres unmarked) [CBK283483]	88.8%

SMILES	viability at 28.5 h, 10 µM
CC(C)(C)c1ccc(NC(=O)N(Cc2ccccc2C(F)(F)F)CC2CCNCC2)cc1 [CBK049752]	86.7%
COc1ccccc1-c1cnc2[nH]c(=O)n(CC3CCOCC3)c2n1 [CBK064286]	100%
Cc1cc(C2CCCCCN2S(=O)(=O)c2ccc(F)cc2)on1 (centres unmarked) [CBK284668]	82.2%
O=C(Nc1ccccc1-c1nc2ccccc2s1)c1sc2cc(Cl)ccc2c1Cl [CBK268642]	88.5%
CCn1cc(NC(=O)C(CC)(CC)CN)ccc1=O [CBK304320C]	89.2%
Nc1cccc(-c2cc(Nc3cccc(OCc4ccccc4)c3)ncn2)c1 [CBK090915]	113%
NC(=O)NS(=O)(=O)c1ccc(NC(=S)NC(=O)c2ccco2)cc1 [CBK261068]	117%
CCCC(=O)Nc1cc(S(=O)(=O)NC)ccc1C [CBK024770]	91.8%
Cc1cc(C(=O)N2CCc3c(sc4ncnc(N)c34)C2)sc1C [CBK306420]	99.4%
CNCCc1ccccc1Sc1ccccc1 [CBK027155G]	102%
COCCCOc1nc2ccccc2nc1C(F)(F)F [CBK115803]	101%
O=C(/C=C/c1ccc(Cl)cc1)Nc1nnn[nH]1 [CBK265468]	81.8%
COc1ccc(C(=O)Nc2ccc(C(C)=O)cc2)cc1[N+](=O)[O-] [CBK262457]	90.8%
Cn1nc(-c2ccccc2)cc1[C@H]1CN2CC[C@H]1C[C@@H]2CNC(=O)N1CCOCC1 [CBK289094]	113%
COc1ccc(/C=C/C(C)=C\C(=O)O)c(OC)c1 [CBK262237N]	94.8%
CN1CCC(OCCCn2ccnc2-c2ccccc2C(=O)O)CC1 [CBK307188]	87%
Cc1cc(NC(=O)c2cncnc2)c2ccccc2n1 [CBK122734]	103%
CCN1CC(C(=O)N2CCN(C)CC2c2ccccc2)CC1=O (centres unmarked) [CBK282026]	92.2%
COc1cccc(C(=O)Nc2nc(-c3ccc(C(C)C)cc3)cs2)c1 [CBK101110]	87%
Cc1cc2cc(CN(CC3CCCO3)C(=O)C3CC3)c(Cl)nc2cc1C (centres unmarked) [CBK109881]	101%
O=C(NCCc1cccs1)Nc1ccc(F)c(F)c1F [CBK044543]	96.1%
O=S(=O)(Nc1cc(F)cc(F)c1F)c1cc(OC2CCNCC2)c2occc2c1 [CBK082814C]	83.9%

SMILES	viability at 28.5 h, 10 µM
c1ccc(CNc2nc(-c3ccncc3)cs2)cc1 [CBK058609]	91%
Cc1cccc(C(=O)N2CCN(S(=O)(=O)c3sc(C(=O)O)c(C)c3C(=O)O)CC2)c1 [CBK297124]	91.4%
O=C(CSCc1ccc(Cl)cc1)Nc1ccc(O)cc1C(=O)O [CBK131694]	97.1%
COc1ccc(-n2ncc(-c3cccnc3)n2)cn1 [CBK112827]	96.7%
O=C(Nc1cccnc1)c1cnc(-c2ccc(Cl)cc2)c(-c2cccnc2)c1 [CBK037568]	102%
O=c1[nH]c2ncc(-c3ccoc3)nc2n1C1CCOCC1 [CBK064973]	119%
CC(=O)NCC(=O)N1C[C@@H]2CCCCN(Cc3cccc(F)c3)[C@@H]2C1 [CBK285515]	90.1%
O=C(c1c(F)cccc1F)N1CCC(c2cc3cccnc3[nH]2)CC1 [CBK284997]	91.5%
COC(=O)C(CCSC)NC(=O)c1ccc(C(F)(F)F)cc1 (centres unmarked) [CBK057452]	91.9%
CN(C)CCN1CCN(c2nc(-c3cccc(C(N)=O)c3)cnc2N)CC1 [CBK063537]	97.8%
CC(=O)N[C@H](C(=O)N1CCC2(C/C=C/C[C@H]3COCC[C@H]3NC(=O)[C@@H](CC(C)C)NC2=O)CC1)[C@@H](C)OC(C)(C)C [CBK292197]	90.7%
O=c1sc(Nc2ccccc2)nc2ccsc12 [CBK287853]	91.9%
Cc1c(C(=O)O)sc2nc(SC/C=C/c3ccccc3)nc(N)c12 [CBK300523]	83.4%
CCCC(=O)c1ccc(S(=O)(=O)N2CCN(Cc3csc(-c4ccccc4)n3)CC2)cc1 [CBK063161]	93.3%
CC(NC(=O)N1CCN(c2cc(C(F)(F)F)ccn2)CC1)c1ccccc1 (centres unmarked) [CBK162350]	91.7%
Cc1cc(C(=O)NCc2ccnc(N3CCOCC3)c2)c(C)n1-c1cccc(Cl)c1 [CBK298301]	81.9%
COc1ccccc1CN(CC(C)(C)CN)C(=O)Nc1ccc(C)c([N+](=O)[O-])c1 [CBK026816C]	98.8%
CS(=O)(=O)c1ccc(-c2cnc(N)c(NCc3ccncc3)n2)cc1 [CBK063647]	105%
CC1CCc2n[nH]c(C(=O)NCCCc3ccco3)c2C1 (centres unmarked) [CBK283153]	88.6%
CCc1cc(CNC(=O)C(c2ccc(Cl)cc2)N(C)C)on1 (centres unmarked) [CBK281670]	96.6%
O=S(=O)(Nc1nnc(C(F)(F)F)s1)c1ccc(-c2cc(C(F)(F)F)on2)s1 [CBK062019]	91.1%
Nc1nonc1-c1nc2ccccc2o1 [CBK009829]	91%

SMILES	viability at 28.5 h, 10 µM
C(=C\C1Nc2ccccc2-c2nnc(SCc3ccccc3)nc2O1)/c1ccccc1 (centres unmarked) [CBK264447]	112%
CC(=O)NCCNC(=O)c1cc(Br)c[nH]1 [CBK297767]	88.3%
COc1ccc(C2(C(=O)NCc3ccncc3)CCOCC2)cc1 [CBK287991]	103%
COC(=O)/C=C/c1cn(C2CC(O)C(CO)O2)c(=O)[nH]c1=O (centres unmarked) [CBK201244]	105%
Cc1ccc(C(=O)CC(C(=O)O)c2cn(CCC#N)c3ccccc23)cc1 (centres unmarked) [CBK287194]	85.8%
Cc1ccc(C2(CN3CCC(NC(=O)CO)CC3)CCCC2)cc1 [CBK282628]	88.5%
Cc1nn(C)c(Cl)c1S(=O)(=O)Nc1ccc2cn[nH]c2c1 [CBK067141]	90.2%
Cc1ccc(Cl)cc1N=C(N)N=C(N)N [CBK268049]	98.8%
Cc1cc(NS(=O)(=O)c2ccc(-c3ccon3)s2)n(C)n1 [CBK067257]	85.4%
CCS(=O)(=O)N1CCC2(C=Cc3cc(F)ccc3O2)CC1 [CBK284747]	104%
OC(CNc1nccnc1-c1ccsc1)COc1ccccc1 (centres unmarked) [CBK037057]	96.3%
Fc1ccc2[nH]c3c(c2c1)CCN1C(c2ccncc2)N2CCC31CC2 (centres unmarked) [CBK284437]	78.6%
Cn1cc(CCN2CCC(C(=O)NC(=O)Nc3ccccc3)CC2)c2ccccc21 [CBK034867]	83.6%
Nc1cc(S(=O)(=O)Nc2ccc(C(F)(F)F)cc2)ccc1N1CCCNCC1 [CBK001518C]	87.9%
Cc1ccc(S(=O)(=O)CCOc2nc3c(C(F)(F)F)cc(C4CC4)nc3o2)cc1 [CBK269267]	111%
Cc1ccc(C(=O)N2CCN(S(=O)(=O)c3sc(C(=O)O)c(C)c3C(=O)O)CC2)s1 [CBK297150]	84.8%
CNC(=O)c1ccc(-n2ccnc2)c(-n2cccc2)c1 [CBK282461]	80.8%
O=C1NC(=O)C(CC(=O)N2CCC3(CCN(Cc4ccccc4)C3)C2)N1 (centres unmarked) [CBK136850]	88.8%
Cc1cc2cc(NC(=O)CCc3c(C)n[nH]c3C)ccc2o1 [CBK283077]	84.2%
O=C(O)c1ccc(N2C(=O)c3ccc(Oc4ccc(S(=O)(=O)c5ccc(C(=O)O)cc5)cc4)cc3C2=O)cc1 [CBK263603]	96.8%
CC1(C)CC(=O)C=C(C(=O)NCc2ccc(OC3CCNCC3)cc2)O1 [CBK038948T]	96.1%
Cc1c(S(=O)(=O)N2CCN(C3CCN(C)CC3)CC2)sc2ccc(C(C)C)cc12 [CBK170352]	105%

Same assay, conditions: human, hela cells, % viability, bulk resorufin, single well

SMILES	viability at 28.5 h, 10 µM
CC1(C)CC(=O)C(C2(O)C(=O)Nc3ccc(Br)cc32)CO1 (centres unmarked) [CBK263410]	92.3%
